For orientation: melting point means the temperature, or range, at which the solid turns liquid.

For `COC(=O)C(C(=O)OC)c1cc(F)cc2c1C(=O)c1cc3ccccc3cc1C2=O`, the melting point was in the range of 225 to 230 °C.

Regarding `C[Si](C)(C)c1ccc2cc(C(=O)Nc3cnc4sc(CO)nc4c3)n(Cc3nccs3)c2c1`, the melting point is 219 to 220 °C.

Compound `O=C(Nc1cccc2ncccc12)C(Cl)(Cl)Cl` showed a melting point of 145 to 147 °C.

Take `O=C(Cc1ccc(Cl)cc1)Nc1ccc(-n2nc(C(F)(F)F)cc2C(F)(F)F)cc1`: the melting point lay within 122 to 124 °C.

As for `Cc1sccc1C1=C(c2ccsc2C)C(F)(F)C(F)(F)C1(F)F`, the melting point turned out to be 73.6 °C.

`C=CCOc1ccccc1NS(C)(=O)=O`: the melting point amounted to 90 °C.

The compound `Cc1nccn1Cc1ccc(N)cc1C(F)(F)F` showed a melting point of 146 to 147 °C.

For the compound `COC(=O)CC[C@H](NC(=O)c1ccc(CCn2cnc3nccc-3c2O)cc1)C(=O)OC`, the melting point is 170 to 172 °C.

In turn, `COCOc1ccc(C=O)cc1OC` gave a melting point of 39 to 40 °C.

For `CCOC(=O)CC(c1cccnc1)N1C(=O)c2ccccc2C1=O` (centres undefined), the melting point was 72.3 to 72.8 °C.

In turn, `CCOC(=O)C(C)NC(=O)N(N(CCCl)S(C)(=O)=O)S(C)(=O)=O` (centres undefined) displayed a melting point of 111 to 112 °C.

On to `O=c1c(OCCO)c(-c2ccc(OCc3ccccc3)c(OCc3ccccc3)c2)oc2cc(OCc3ccccc3)ccc12`, for which the melting point came out at 137 °C.

Turning to `COc1ccc(CN(C)CCSc2ccc(NC(=O)c3cccc4c(=O)c5ccccc5[nH]c34)cc2)cc1OC`, the melting point is 113 °C.

Turning to `CN1CC(CCN2CCN(c3ccc(C(F)(F)F)cc3)CC2)OC1=O` (centres undefined), the melting point fell in the range of 116 to 117 °C.

`CC(=O)Oc1cc(OCc2ccccc2)cc(OC(C)=O)c1` displayed a melting point of 129 to 130 °C.

`COc1ccccc1-n1c(=O)[nH]c2c(C(N)=O)nc(-c3ccc4nc(C(F)(F)F)[nH]c4c3)nc21` showed a melting point of 220 to 222 °C.

As to `CC(C)Cn1c(C(O)c2ccccc2)nc2c(N)nc3ccccc3c21` (centres undefined), the melting point was 125 to 140 °C.

Regarding `CSc1cccc2c1CC(=O)N2`, the melting point was determined as 198 °C.

The compound `O=C1CC(c2ccccc2)NC(=O)C1C(=O)c1ccccc1F` (centres undefined) came in with a melting point of 115 to 116 °C.

With `Cc1nccc(-c2ccccc2)c1/C=C/C=O`, the melting point is 98 to 99 °C.

`CCCC(=O)c1ccc(OCCN2CCN(c3cc(Cl)nnc3Cl)CC2)cc1` gave a melting point of 140 to 141 °C.

Turning to `Cc1cc(C(F)(F)F)nn1CC(=O)N1CCC(c2nc(NC(=O)C3CCCc4ccccc43)cs2)CC1` (centres undefined), the melting point lay in the range of 179 to 181 °C.

Turning to `Cc1cc(Br)c([N+](=O)[O-])c(Br)n1`, the melting point was 118 to 120 °C.

Compound `OCC=C[C@@H]1O[C@H]1C#CC#CC#Cc1ccccc1` (relative stereo) registered a melting point of 65 to 66 °C.

Regarding `COCOc1cc(CCCOc2ncccc2CC(=O)O)n(Cc2ccc(Cl)cc2Cl)n1`, the melting point lay in the range of 101 to 102 °C.

The compound `O=C(O)CC1(CNC(=O)OC(OC(=O)c2ccccc2)c2ccccc2)CCCCC1` (centres undefined) had a melting point of 75.5 to 76 °C.

Compound `CN(C)CCOC(=O)C(=O)c1ccc(OCCOc2ccc3ccccc3c2)cc1` displayed a melting point of 93 to 94 °C.

The compound `CCOC(=O)c1cnn2c(-c3cccc(C(F)(F)F)c3)ccnc12` came in with a melting point of 97 to 99 °C.

The compound `COc1cc(-c2oc3ccccc3c(=O)c2C(=O)O)cc(OC)c1OC` returned a melting point of 260 to 262 °C.

`CCCn1c(=O)c2c(nn3cc[nH]c23)n(Cc2ccccc2)c1=O` registered a melting point of 290 to 292 °C.

In the case of `CCCC(=O)Nc1c([N+](=O)[O-])c(C(C)(C)C)nn1-c1c(Cl)cc(C(F)(F)F)cc1Cl`, the melting point lay within 152 to 154 °C.

Compound `Cc1oc(-c2ccccc2)nc1CCOc1ccc(CC(Nc2ccccc2C(=O)c2cccc(CO)c2)C(=O)O)cc1` (centres undefined) came in with a melting point of 87 to 90 °C.

`CC(=O)CC(=O)C=Cc1ccc(O)cc1Cl`: the melting point lay in the range of 125 to 129 °C.

On to `CN1NN=C(NC(=O)c2cccc3cccnc23)N1`, for which the melting point was in the range of 222 to 223 °C.

Values taken from a melting point compilation (Tetko et al.; mined from patent text by program, amines drawn as free bases though some values may be those of a salt).
